Measured values published in PMC11915801, “Evolutionary trajectory of bacterial resistance to antibiotics and antimicrobial peptides in Escherichia coli” (mSystems, 2025).

Columns and labels:
Experiment in all cases: microbe, parasite or virus in culture
Assay type in all cases: cell-based, Escherichia coli
[1] = tested on: E. coli K-12 MG1655; details: for MIC of MG1655 under the pressure of the same drug, generation 20 / MIC of MG1655 under the pressure of the same drug, generation 30 / MIC of MG1655 under the pressure of the same drug, generation 40 / MIC of MG1655 under the pressure of the same drug, generation 50 / MIC of MG1655 under the pressure of the same drug, generation 60 / MIC of MG1655 under the pressure of the same drug, generation 70 / MIC of MG1655 under the pressure of the same drug, generation 80 / MIC of MG1655 under the pressure of the same drug, generation 90 / MIC of MG1655 under the pressure of the same drug, generation 100 / MIC of MG1655 under the pressure of the same drug, generation 110 / MIC of MG1655 under the pressure of the same drug, generation 120: as E2; for MIC of MG1655 under the pressure of the same drug, generation primary: broth microdilution (CLSI), primary MG1655 before passage; for MIC of MG1655 under the pressure of the same drug, generation 10: broth microdilution, line passaged in MH broth with sub-inhibitory drug, 12 h per passage, 37℃
Procedure: (§1) The broth microdilution method was used to measure the MIC values of antibiotics and peptides according to the Clinical and Laboratory Standards Institute guidelines. The MIC value is defined as the lowest drug concentration without visible bacteria.
Eight antibiotics and ten AMPs at the sub-inhibitory concentration were prepared. A 300-µL system, including 260 µL of MH broth, 30 µL of prepared drug, and 10 µL of bacterial culture, was used for resistance passages. After 12 h of incubation at 37℃ and 200 rpm, 10 µL of the above bacterial culture was added into the new sterile drug-containing broth. MIC values of bacterial culture were determined. The drug concentration was adjusted according to the MIC value change until the end of the 120 passages.

[2] = tested on: KAN80 (evolved MG1655); details: broth microdilution; kanamycin-evolved strain
Text: (§2) To ensure the stable resistance evolution and inheritance of MG1655 under different drugs, we randomly selected three monoclonals from the evolved strains. The final antibiotic-evolved strains were designated as AMP120, AZI120, CHL80, CIP120, DOX120, KAN80, NIT70, and TMP30, while the final AMP-evolved strains were named COL120, Ind120, Omi120, Pex120, PGLA120, Pleu120, R8120, SAAP120, LI120, and SLAP120.
as §1

[3] = tested on: CIP120 (evolved MG1655); details: broth microdilution; ciprofloxacin-evolved strain
Text: as §2, §1

[4] = tested on: DOX120 (evolved MG1655); details: broth microdilution; doxycycline-evolved strain
Text: as §2, §1

[5] = tested on: CHL80 (evolved MG1655); details: broth microdilution; chloramphenicol-evolved strain
Text: as §2, §1

[6] = tested on: COL120 (evolved MG1655); details: broth microdilution; colistin-evolved strain
Text: as §2, §1

[7] = tested on: NIT70 (evolved MG1655); details: broth microdilution; nitrofurantoin-evolved strain
Text: as §2, §1

[8] = tested on: TMP30 (evolved MG1655); details: broth microdilution; trimethoprim-evolved strain
Text: as §2, §1

[9] = tested on: AMP120 (evolved MG1655); details: for MIC values of evolved MG1655, strain AMP120: broth microdilution, ampicillin-evolved strain
Text: as §2, §1

[10] = tested on: AZI120 (evolved MG1655); details: broth microdilution; azithromycin-evolved strain
Text: as §2, §1

[11] = MG1655, sub-inhibitory drug in MH broth over 60 days

Compound | evolution of resistance in MG1655 (in words) [1, 11] | MIC of MG1655 under the pressure of the same drug, generation 20 [1] [µg/mL] | MIC of MG1655 under the pressure of the same drug, generation 30 [1] [µg/mL] | MIC of MG1655 under the pressure of the same drug, generation 40 [1] [µg/mL] | MIC of MG1655 under the pressure of the same drug, generation 50 [1] [µg/mL] | MIC of MG1655 under the pressure of the same drug, generation 60 [1] [µg/mL] | MIC of MG1655 under the pressure of the same drug, generation 70 [1] [µg/mL] | MIC of MG1655 under the pressure of the same drug, generation 80 [1] [µg/mL] | MIC of MG1655 under the pressure of the same drug, generation 90 [1] [µg/mL] | MIC of MG1655 under the pressure of the same drug, generation primary [1] [µg/mL] | MIC of MG1655 under the pressure of the same drug, generation 10 [1] [µg/mL] | MIC values of evolved MG1655, strain KAN80 [2] [µg/mL] | MIC values of evolved MG1655, strain CIP120 [3] [µg/mL] | MIC values of evolved MG1655, strain DOX120 [4] [µg/mL] | MIC values of evolved MG1655, strain CHL80 [5] [µg/mL] | MIC values of evolved MG1655, strain COL120 [6] [µg/mL] | MIC values of evolved MG1655, strain NIT70 [7] [µg/mL] | MIC values of evolved MG1655, strain TMP30 [8] [µg/mL] | MIC values of evolved MG1655, strain AMP120 [9] [µg/mL] | MIC values of evolved MG1655, strain AZI120 [10] [µg/mL] | other results
AC-Dab-Ile-Dab-Ile-Dab-D-Phe-Leu-Dab-D-Val-Leu-Ala-NH2 [SLAP, SLAP-S25, short-linear AMP] | marginal increase in resistance | 8 | 8 | 8 | 16 | 16 | 16 | 32 | 32 | 4 | 4 | 2 | 2 | 2 | 2 | 8 | 2 | 4 | 1 | 32 | MIC of MG1655 under the pressure of the same drug, generation 100 [1]: 32 µg/mL; MIC of MG1655 under the pressure of the same drug, generation 110 [1]: 64 µg/mL; MIC of MG1655 under the pressure of the same drug, generation 120 [1]: 64 µg/mL; collateral sensitivity of AMP120 (fold change of MIC vs wild-type MG1655) ([9]; MIC of AMP120 compared with MG1655): exceeding fourfold
Fatty acyl-Dab-Thr-Dab-Dab-Dab-D-Leu-Leu-Dab-Dab-Thr [COL, Colistin, cationic lipopeptide antibiotic (polymyxin), source microorganism] | marginal increase in resistance | 0.125 | 0.25 | 0.25 | 0.5 | 0.5 | 0.5 | 0.5 | 0.5 | 0.125 | 0.125 | 0.5 | 0.5 | 0.25 | 0.25 | 0.5 | 0.5 | 0.5 | 0.5 | 0.5 | MIC of MG1655 under the pressure of the same drug, generation 100 [1]: 0.5 µg/mL; MIC of MG1655 under the pressure of the same drug, generation 110 [1]: 0.5 µg/mL; MIC of MG1655 under the pressure of the same drug, generation 120 [1]: 0.5 µg/mL
NC[C@H]1O[C@H](O[C@H]2[C@H](O)[C@@H](O[C@H]3O[C@H](CO)[C@@H](O)[C@H](N)[C@H]3O)[C@H](N)C[C@@H]2N)[C@H](O)[C@@H](O)[C@@H]1O [KAN, Kanamycin] |  | 32 | 64 | 64 | 128 | 256 | 256 | 512 |  | 2 | 16 | 512 | 4 | 2 | 2 | 4 | 4 | 4 | 1 | 4 | increase in MIC values after experimental evolution ([1]; MG1655, sub-inhibitory drug in MH broth over 60 days, final vs primary MIC): 256 fold
